# Source: patent US11464826B2, “Composition comprising an algal proteoglycan extract and use thereof” (priority 2016, dated 2022)
# Where two headings read alike, the source gives them in different places.
# Assays:
# S-180 sarcoma = test: Transplanted S-180 sarcoma in mice, tumor inhibition
# Experimental: Tumors, including B-16 melanoma and S-180 sarcoma, were provided by Shanghai Institute of Materia Medica of the Chinese Academy of Sciences.
# The tumor tissue was made into cell suspension. The mice were inoculated subcutaneously in the right axilla with the cell suspension, about 4.5-5×10^6 cells/mouse. After 24 hours, the mice were randomly divided into different groups and housed in separate cages (n=6). […] The administration began on the second day and lasted for seven days, with different doses. The blank control group was given normal saline (NS). The animals were sacrificed and weighed (g body weight) 24 hours after drug withdrawal. The tumors were excised and weighed. The average tumor weight was calculated for each group. According to the following formula, the tumor inhibition rate was calculated and T test was conducted.
# According to the formula below, the tumor inhibition rate was calculated and T test was conducted.
# (§1) A=average tumor weight (g) of blank control group,
# B=average tumor weight (g) of therapeutic group
# B16 melanoma = test: Transplanted B16 melanoma in mice, tumor inhibition; type: in vivo, C57 mice; conditions: alone or combined, once a day for seven days
# Experimental: The tumor tissue was made into cell suspension. […] The blank control group was given normal saline (NS). […] The tumors were excised and weighed. The average tumor weight was calculated for each group.
# as §1
# B =average tumor weight (g) of therapeutic group
# pancreatic carcinoma = conditions: cited from earlier work
# liver cancer = conditions: treatment group (placebo control group 7.9 months); cited from earlier work
# [1] = Table 16: Carboplatin 4 mg/kg i.p, Algal proteoglycan 20 mg/kg p.o, alone or combined, once a day for seven days
# [2] = Table 12: Carboplatin 4 mg/kg i.p, Algal proteoglycan 30 mg/kg p.o
# [3] = Table 13: Carboplatin 4 mg/kg i.p, Algal proteoglycan 60 mg/kg p.o
# [4] = Table 14: Adriamycin 1 mg/kg i.p, Algal proteoglycan 30 mg/kg p.o
# [5] = Table 15: Cyclophosphamide 7.5 mg/kg i.p, Algal proteoglycan 60 mg/kg p.o, alone or combined, once a day for seven days
# [6] = Table 17: Etoposide 3 mg/kg i.p, Algal proteoglycan 20 mg/kg p.o, alone or combined, once a day for seven days
# [7] = Table 18: 5-Fluorouracil 15 mg/kg i.p, Algal proteoglycan 20 mg/kg p.o, alone or combined, once a day for seven days
molecule,measurement,setting,value
N.N.O=C([O-])C1(C(=O)[O-])CCC1.[Pt+2] [Carboplatin],"inhibitory effect on the growth of the transplanted tumor of S-180 sarcoma, in words",S-180 sarcoma; Carboplatin 4 mg/kg used alone (P>0.05),no inhibitory effect
same,Body Weight (g) in the End,S-180 sarcoma; [1],26.4 g
same,Tumor Inhibition Rate (%),S-180 sarcoma; [1],7.7%
same,Tumor Weight (g) x ± SD,S-180 sarcoma; [1],1.68 ± 0.53 g
same,Body Weight (g) in the Beginning,B16 melanoma; [2],18.0 g
same,Body Weight (g) in the End,B16 melanoma; [2],16.7 g
same,Tumor Inhibition Rate (%),B16 melanoma; [2],28.2%
same,Tumor Weight (g) x ± SD,B16 melanoma; [2],1.07 ± 0.88 g
same,Body Weight (g) in the Beginning,B16 melanoma; [3],20.3 g
same,Tumor Inhibition Rate (%),B16 melanoma; [3],14.0%
same,Tumor Weight (g) x ± SD,B16 melanoma; [3],1.23 ± 0.37 g
COc1cccc2c1C(=O)c1c(O)c3c(c(O)c1C2=O)C[C@@](O)(C(=O)CO)C[C@@H]3O[C@H]1C[C@H](N)[C@H](O)[C@H](C)O1 [Adriamycin],Tumor Inhibition Rate (%),B16 melanoma; [4],41.5%
same,Tumor Weight (g) x ± SD,B16 melanoma; [4],1.97 ± 0.84 g
Nc1ccn([C@@H]2O[C@H](CO)[C@@H](O)C2(F)F)c(=O)n1 [Gemcitabine FDR.],Overall survival,"pancreatic carcinoma; Poplon et al, 832 cases",6.2 months
O=P1(N(CCCl)CCCl)NCCCO1 (stereo not drawn) [Cyclophosphamide],Body Weight (g) in the Beginning,S-180 sarcoma; [5],22.8 g
same,Body Weight (g) in the End,S-180 sarcoma; [5],24.9 g
same,Tumor Inhibition Rate (%),S-180 sarcoma; [5],42.2%
same,Tumor Weight (g) x ± SD,S-180 sarcoma; [5],1.11 ± 0.24 g
Gemcitabine + capecitabine,Overall survival,"pancreatic carcinoma; Cunningham et al, 533 cases",6.2 months
same,Overall survival,"pancreatic carcinoma; Hermann et al, 319 cases",8.4 months
Gemcitabine + cisplatin,Overall survival,"pancreatic carcinoma; Colucci et al, 400 cases",8.2 months
same,Overall survival,"pancreatic carcinoma; Heinemann et al, 195 cases",7.5 months
CNC(=O)c1cc(Oc2ccc(NC(=O)Nc3ccc(Cl)c(C(F)(F)F)c3)cc2)ccn1 [Sorafenib],median survival time,liver cancer,10.7 months
COc1cc([C@@H]2c3cc4c(cc3[C@@H](O[C@@H]3O[C@@H]5CO[C@@H](C)O[C@H]5[C@H](O)[C@H]3O)[C@H]3COC(=O)[C@H]23)OCO4)cc(OC)c1O [Etoposide],Tumor Inhibition Rate (%),S-180 sarcoma; [6],26.9%
same,Tumor Weight (g) x ± SD,S-180 sarcoma; [6],1.33 ± 0.28 g
Nc1ccn([C@@H]2O[C@H](CO)[C@@H](O)C2(F)F)c(=O)n1 [Gemcitabine],Overall survival,"pancreatic carcinoma; Abou-Alfa et al, 349 cases",6.2 months
same,Overall survival,"pancreatic carcinoma; Berlin et al, 322 cases",5.4 months
same,Overall survival,"pancreatic carcinoma; Colucci et al, 400 cases",7.2 months
same,Overall survival,"pancreatic carcinoma; Cunningham et al, 533 cases",7.1 months
same,Overall survival,"pancreatic carcinoma; Heinemann et al, 195 cases",6.0 months
same,Overall survival,"pancreatic carcinoma; Hermann et al, 319 cases",7.2 months
same,Overall survival,"pancreatic carcinoma; Louvet et al, 313 cases",7.1 months
same,Overall survival,"pancreatic carcinoma; Oettle et al, 565 cases",6.3 months
same,Overall survival,"pancreatic carcinoma; Poplon et al, 832 cases",4.9 months
same,Overall survival,"pancreatic carcinoma; Rocha Lima et al, 342 cases",6.3 months
same,Overall survival,"pancreatic carcinoma; Starhopoulos et al, 145 cases",6.4 months
"O=c1[nH]cc(F)c(=O)[nH]1 [5-Fluorouracil, 5-fluorouracil]","inhibitory effect on the transplanted tumor of S-180 sarcoma, in words",S-180 sarcoma; 5-fluorouracil 15 mg/kg used alone,moderate inhibitory effect
same,Tumor Inhibition Rate (%),S-180 sarcoma; [7],33.8%
same,Tumor Weight (g) x ± SD,S-180 sarcoma; [7],1.04 ± 0.52 g
